Measurements reported in article PMC9856672, “SGC-CAMKK2-1: A Chemical Probe for CAMKK2” (Cells, 2023).

Columns and labels:
CAMKK2 = CAMKK2 (Homo sapiens, UniProt Q96RR4); design: purified recombinant CAMKK2 (100 pM) was incubated in assay buffer; method as in earlier work; settings: reported CAMKK2 inhibitors; ref 47 (Price et al.); cited from earlier work
[1] = Single dose IP pharmacokinetic study in mice; format: in vivo, CD-1 mice; settings: mouse, 10 mg/kg IP, plasma at 0.5, 1, 3, 8 h
Description: CD-1 mice with weights 23–25 g were purchased from Charles River Laboratories.
The animal experiments were performed at Alliance Pharma (Malvern, PA, USA) in accordance with the guide for the care and use of laboratory animals. Alliance Pharma is accredited by the Association for Assessment and Accreditation of Laboratory Animal Care (AAALAC).
The test compounds were dissolved in DMSO and then diluted to the appropriate concentration with the vehicle. For formulation we targeted the minimal amount of DMSO that could be used in combination with a formulation composed of 0.5% HPMC/0.2% Polysorbate 80. […] Blood was collected at t = 0.5, 1, 3, and 8 h and immediately spun for 3 min, the plasma was collected, and compound levels were quantified with HPLC/MS. The raw data are available in the Supplemental Information.
With the probe molecule having favorable selectivity and potency in vitro and in a cellular context, we next wanted to determine its suitability for in vivo experiments. SGC-CAMKK2-1 (5) was progressed to a single dose mouse intraperitoneal (I.P) experiment.

[2] = test system: p-AMPK(Thr172) in C4-2 cells; test: Western blot of p-AMPK(Thr172) in C4-2 prostate cancer cells; format: cell-based; settings: C4-2, 24 h, 24 h treatment, three individual experiments, read-out: IC50 for decrease of p-AMPK(Thr172) normalized to total AMPK
Description: C4-2 cells were plated in 6-well plates in IMEM medium containing 0.5% FBS. After 72 h, the cells were then treated with the compounds for 24 h before the media was aspirated and cells were washed twice in ice-cold PBS. Cells were lysed using RIPA buffer containing phosphatase and protease inhibitor cocktail while rotating for 30 min at 4 °C. In each lane, 30 μg/well of protein lysate was loaded into a 10% SDS-PAGE gel and run for 1 h and 30 min. Gels were then transferred overnight in a TRIS-glycine/methanol transfer buffer onto a PVDF membrane at 4 °C. Membranes were blocked, incubated with primary overnight at 4 °C, washed, incubated with secondary at room temperature for 1 h, washed, and then developed on an Azure Biosystems C-600 imager. Densitometry was performed using ImageJ. Total-AMPK was normalized to GAPDH and then p-AMPK was normalized to normalized total-AMPK. Normalized p-AMPK was used to calculate IC50 in GraphPad Prism 9.5.0. Primary antibodies used were from Cell Signaling (Danvers, MA, USA; Phospho-AMPKα (Thr172) (40H9) Rabbit mAb: Cat#: 2535; AMPKα (D5A2) Rabbit mAb Cat#: 5831), BD Bioscience (Franklin Lakes, NJ, USA; CAMKK2 mouse mAb Cat# 610544), and Sigma (St. Louis, MO, USA; GAPDH rabbit pAb: Cat# G9545). Secondary antibody (Goat Anti-Rabbit IgG (H + L)-HRP Conjugate; Cat#:1706515) was from Bio-Rad Laboratories (Hercules, CA, USA).
In this experiment, IC50 was calculated via quantifying changes in p-AMPK(Thr172) normalized to total AMPK levels.

Structure (SMILES) | pIC50 (CAMKK2) (CAMKK2) | plasma concentration / in vivo PK (in words) [1] | IC50 [2] [µM]
CN(C)Cc1ccc(-c2cc3c(-c4ccc(C(N)=O)cc4)ccnc3[nH]2)cc1 [Compound 3] | 8.5 | – | –
O=C(O)c1ccc(-c2ccnc(Nc3cccc(-c4ccccc4)c3)n2)cc1 [Compound 4] | 8.1 | – | –
O=C(O)c1ccc2c3c1cccc3c(=O)n1c3ccccc3nc21 [STO-609, reference compound] | – | considerably higher plasma concentrations than SGC-CAMKK2-1 | 10.7
